Results reported in patent US20130316394A1, “VIABILITY STAINING METHOD” (priority 2012, published 2013).

Experiments:
E. coli [1] = assay: Discrimination of viable and non-viable E. coli in solution with fluorescent probe and two PET quenchers; type: cell-based; settings: mixed viable/heat killed E. coli, 0.005 mM Oxazine 170 perchlorate, 0.4 mM p-Sulfonic calix[6]arene, 100 mM Sodium ascorbate in PBS, about 5 min
Experimental: The viable and heat killed E. coli were preparations were prepared as described in Example 1. The heat killed E. coli suspension was then combined with the viable cell suspension and mixed by vortexing. The resulting cell suspension served as the viable and non-viable E. coli solution.
A fluorescent probe-quencher stain was prepared as a solution consisting of 0.005 mM Oxazine 170 perchlorate (Sigma-Aldrich, St. Louis, Mo.), 0.4 mM p-Sulfonic calix[6]arene (TCI America, Portland, Oreg.), 100 mM Sodium ascorbate (Sigma-Aldrich, St. Louis, Mo.) in PBS.
The viable and non-viable E. coli suspension was then diluted 1:1000 into the fluorescent probe-quencher solution to stain the cells. After incubation for approximately 5 minutes, a droplet of the stained cell solution was placed onto a microscope slide and imaged on a fluorescent microscope (Carl Zeiss, LLC, Thornwood, N.Y.).
FIGS. 20A and 20B show a combined image of the viable and non-viable stained E. coli captured under phase contrast (FIG. 20A) as well as fluorescent conditions (excitation 575-625 nm, emission 660-710 nm) (FIG. 20B). The viable and non-viable cells were indistinguishable in phase contrast but under fluorescent conditions the viable cells were brightly fluorescent whereas the non viable cells were not.

E. coli [2] = assay: Imaging of viable and heat killed E. coli on a membrane with fluorescent probe and quencher wash; type: cell-based; settings: 0.005 mM Oxazine 170 perchlorate stain, 10 mM quencher wash in PBS
Experimental: Viable and non-viable E. coli cell fractions were prepared by picking a colony cultured on a conventional media plate and then transferring the cells into Phosphate Buffered Saline (PBS). The cells then were suspended by vortexing and then were further diluted in PBS to give a turbidity equivalent to a 1.0 McFarland standard. This stock solution served as the live cell fraction. An aliquot of the live cell fraction was transferred to a glass tube that was placed into a boiling water bath for about 15 minutes to heat kill the E. coli. The tube was removed from the bath and allowed to cool to room temperature. This heat killed suspension served as the dead cell fraction.
A fluorescent stain solution was prepared as a 0.005 mM solution of Oxazine 170 perchlorate (Sigma-Aldrich, St. Louis, Mo.) in PBS containing a 1:100,000 dilution of 10% w/v 0.8 μm Sky Blue latex fluorescent particles (Spherotech, Lake Forest, Ill.). A separate quencher wash solution was prepared as a 10 mM Sodium ascorbate (Sigma-Aldrich, St. Louis, Mo.) solution in PBS. […]
The cells then were imaged using a fluorescent microscope (Carl Zeiss, LLC—Thornwood, N.Y.) with an excitation of 575 nm-625 nm and measured emission of 660 nm-710 nm. […]

## O=S(=O)(O)c1cc2c(O)c(c1)Cc1cc(S(=O)(=O)O)cc(c1O)Cc1cc(S(=O)(=O)O)cc(c1O)Cc1cc(S(=O)(=O)O)cc(c1O)Cc1cc(S(=O)(=O)O)cc(c1O)Cc1cc(S(=O)(=O)O)cc(c1O)C2 [p-Sulfonic calix[6]arene, 4- Sulfocalix [6]arene]
E. coli [1]
  permeation of non-viable cell membranes and quenching of fluorescence: effective quenching of fluorescence

## O=C1O[C@H]([C@@H](O)CO)C([O-])=C1O.[Na+] [sodium ascorbate, Sodium Ascorbate]
E. coli [1]
  permeation of non-viable cell membranes and quenching of fluorescence: effective quenching of fluorescence
E. coli [2]; heat killed E. coli on 0.2 μm membrane
  permeation of the quencher into heat killed cells and effect on fluorescence: quenching of the fluorescent signal and a loss of fluorescence
E. coli [2]; live E. coli on 0.2 μm membrane
  permeation of the quencher into viable cells: excluded from the viable cells
